For orientation: IC50 means the concentration that gives 50% inhibition.

The source of these data is US20230234948A1, “CYCLOPROPYL DIHYDROQUINOLINE SULFONAMIDE COMPOUNDS” (AMGEN INC., priority 2020, published 2023).

The target in this experiment is T1, Human NaV1.7 (Homo sapiens, UniProt Q15858).
T1 construct: expressed in transfected cells; host or cells: Spiking HEK cells (without Kir2.1 transfection)
In words: Ionworks Barracuda (IWB) automated patch clamp assay. The class given is cell-based. To be noted: human NaV1.7 in HEK cells, population patch-clamp, state- and use-dependent voltage protocol; read-out: hNaV1.7 IWB-U IC50. How it is done:
Ionworks Barracuda (IWB) Automated Patch Clamp Assay (Same Protocol for Both Human and Mouse)
Human NaV1.7 currents were recorded in population patch-clamp mode with the IWB automated electrophysiology system (Molecular Devices, LLC, Sunnyvale, Calif.). Spiking HEK cells (without Kir2.1 transfection) were cultured and prepared for recordings as previously described for IonWorks Quattro testing^1. The external solution consisted of the following (in mM): NaCl 140, KCl 5, CaCl2 2, MgCl2 1, HEPES 10, and glucose 11, pH 7.4, with N-methyl-D-glucamine at 320 mOsmol. […] From a holding potential of −110 mV, currents were elicited by a train of 26 depolarizations of 150 ms duration to −20 mV at a frequency of 5 Hz. Cells were then clamped to −20 mV for a period of 4 minutes in the presence of a single concentration of test compound. Following this compound incubation period, cells were clamped to −110 mV for three seconds to recover unbound channels and put through the same 26 pulse voltage protocol as above. Peak inward current during the 26th pulse to −20 mV in the presence of compound was divided by the peak inward current evoked by the 26th pulse to −20 mV in the absence of compound to determine percent inhibition. Concentration-response curves of percent inhibition as a function of concentration were generated to calculate IC50 values as described in Kornecook, T. J.; Yin, R.; Altmann, S.; et al. Pharmacologic Characterization of AMG8379, a Potent and Selective Small Molecule Sulfonamide Antagonist of the Voltage-Gated Sodium Channel NaV1. 7.
The potency of the compounds of the present invention were evaluated on human NaV1.7 channels using the above described IonWorks Barracuda automated electrophysiology platform that evaluates the ability of compounds to block sodium conductance through NaV1.7 channels. A voltage-protocol that prosecutes both state-dependent as well as use-dependent inhibition was used as these modes of action are thought to be more relevant for the native state of NaV1.7 channels in pain sensing neurons in vivo.

Structures are written as SMILES.

T1 sequence (Q15858 whole entry): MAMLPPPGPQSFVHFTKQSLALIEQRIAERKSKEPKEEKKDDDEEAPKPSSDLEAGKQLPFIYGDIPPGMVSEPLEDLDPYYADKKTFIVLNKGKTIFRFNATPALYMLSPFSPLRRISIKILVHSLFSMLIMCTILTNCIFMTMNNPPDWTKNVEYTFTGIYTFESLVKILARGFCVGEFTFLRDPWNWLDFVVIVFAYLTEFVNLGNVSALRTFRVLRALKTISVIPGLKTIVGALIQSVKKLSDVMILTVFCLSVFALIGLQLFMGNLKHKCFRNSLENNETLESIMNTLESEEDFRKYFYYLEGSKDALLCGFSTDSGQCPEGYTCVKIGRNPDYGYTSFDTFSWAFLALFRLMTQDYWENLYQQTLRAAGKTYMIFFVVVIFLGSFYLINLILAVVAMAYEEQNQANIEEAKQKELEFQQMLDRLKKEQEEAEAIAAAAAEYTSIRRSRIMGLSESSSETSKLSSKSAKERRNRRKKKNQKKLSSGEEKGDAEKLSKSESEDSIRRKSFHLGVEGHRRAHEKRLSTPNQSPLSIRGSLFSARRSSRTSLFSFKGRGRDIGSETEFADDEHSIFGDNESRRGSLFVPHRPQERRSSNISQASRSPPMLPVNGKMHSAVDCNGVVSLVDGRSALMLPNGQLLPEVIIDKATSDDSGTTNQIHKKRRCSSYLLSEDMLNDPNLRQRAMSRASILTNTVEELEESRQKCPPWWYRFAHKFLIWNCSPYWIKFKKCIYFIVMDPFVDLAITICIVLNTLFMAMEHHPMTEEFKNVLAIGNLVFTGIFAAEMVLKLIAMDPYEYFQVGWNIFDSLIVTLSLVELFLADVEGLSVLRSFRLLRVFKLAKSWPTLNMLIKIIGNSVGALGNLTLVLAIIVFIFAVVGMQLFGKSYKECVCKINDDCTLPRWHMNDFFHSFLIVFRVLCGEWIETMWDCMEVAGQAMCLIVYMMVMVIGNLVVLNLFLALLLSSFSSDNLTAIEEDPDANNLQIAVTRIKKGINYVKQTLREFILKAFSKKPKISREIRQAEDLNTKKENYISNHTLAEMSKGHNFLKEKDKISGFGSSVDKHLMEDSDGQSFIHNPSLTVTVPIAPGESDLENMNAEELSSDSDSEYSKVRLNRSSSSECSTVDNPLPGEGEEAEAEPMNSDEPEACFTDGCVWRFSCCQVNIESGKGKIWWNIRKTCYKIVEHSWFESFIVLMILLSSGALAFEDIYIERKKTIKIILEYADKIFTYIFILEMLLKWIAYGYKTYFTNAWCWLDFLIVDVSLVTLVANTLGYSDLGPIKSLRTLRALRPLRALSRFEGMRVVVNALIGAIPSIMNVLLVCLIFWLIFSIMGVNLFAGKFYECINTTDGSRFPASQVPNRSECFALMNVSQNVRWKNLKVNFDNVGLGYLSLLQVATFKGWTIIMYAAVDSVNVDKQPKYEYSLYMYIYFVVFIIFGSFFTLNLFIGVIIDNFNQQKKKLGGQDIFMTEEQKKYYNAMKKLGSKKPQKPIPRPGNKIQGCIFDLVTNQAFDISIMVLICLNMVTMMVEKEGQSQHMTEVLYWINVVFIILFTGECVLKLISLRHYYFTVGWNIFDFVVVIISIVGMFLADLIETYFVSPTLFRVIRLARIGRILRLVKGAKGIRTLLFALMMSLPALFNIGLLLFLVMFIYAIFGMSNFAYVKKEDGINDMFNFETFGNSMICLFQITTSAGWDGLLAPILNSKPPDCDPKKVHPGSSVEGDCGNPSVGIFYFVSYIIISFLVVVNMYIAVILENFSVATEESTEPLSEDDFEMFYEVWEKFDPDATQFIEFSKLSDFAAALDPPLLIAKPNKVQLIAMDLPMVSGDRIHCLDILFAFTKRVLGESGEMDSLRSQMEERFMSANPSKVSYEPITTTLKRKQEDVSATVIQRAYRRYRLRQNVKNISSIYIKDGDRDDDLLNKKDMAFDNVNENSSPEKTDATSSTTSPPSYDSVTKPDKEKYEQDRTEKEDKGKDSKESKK

Consider `COc1cc([C@H]2C[C@@H]2C(F)(F)F)c(F)cc1-n1c(=O)ccc2cc(S(=O)(=O)Nc3ccon3)ccc21` (atropisomer, axis not shown; (P)) [Example 4, (P)-1-(5-fluoro-2-methoxy-4-((1S,2S)-2-(trifluoromethyl)cyclopropyl)phenyl)-N-(isoxazol-3-yl)-2-oxo-1,2-dihydroquinoline-6-sulfonamide], for which the IC50 amounted to 0.011 µM. The same measure for `COc1cc([C@@H]2C[C@H]2C(F)(F)F)c(F)cc1-n1c(=O)ccc2cc(S(=O)(=O)Nc3ccon3)ccc21` (atropisomer, axis not shown; (P)) [Example 5, (P)-1-(5-fluoro-2-methoxy-4-((1R,2R)-2-(trifluoromethyl)cyclopropyl)phenyl)-N-(isoxazol-3-yl)-2-oxo-1,2-dihydroquinoline-6-sulfonamide]: 0.009 µM; for `COc1cc([C@@H]2C[C@H]2C)c(F)cc1-n1c(=O)ccc2cc(S(=O)(=O)Nc3ccon3)ccc21` (atropisomer, axis not shown; (P)) [Example 6, (P)-1-(5-fluoro-2-methoxy-4-((1R,2R)-2-methylcyclopropyl)phenyl)-N-(isoxazol-3-yl)-2-oxo-1,2-dihydroquinoline-6-sulfonamide]: 0.02 µM. The same measure for `COc1cc([C@H]2C[C@@H]2C)c(F)cc1-n1c(=O)ccc2cc(S(=O)(=O)Nc3ccon3)ccc21` (atropisomer, axis not shown; (P)) [Example 7, (P)-1-(5-fluoro-2-methoxy-4-((1S,2S)-2-methylcyclopropyl)phenyl)-N-(isoxazol-3-yl)-2-oxo-1,2-dihydroquinoline-6-sulfonamide]: 0.016 µM; for `COc1cc([C@@H]2C[C@H]2c2ccccc2)c(F)cc1-n1c(=O)ccc2cc(S(=O)(=O)Nc3ccon3)ccc21` (atropisomer, axis not shown; (P)) [Example 8, (P)-1-(5-fluoro-2-methoxy-4-((1R,2R)-2-phenylcyclopropyl)phenyl)-N-(isoxazol-3-yl)-2-oxo-1,2-dihydroquinoline-6-sulfonamide]: 0.008 µM.

With `COc1cc([C@H]2C[C@@H]2c2ccccc2)c(F)cc1-n1c(=O)ccc2cc(S(=O)(=O)Nc3ccon3)ccc21` (atropisomer, axis not shown; (P)) [Example 9, (P)-1-(5-fluoro-2-methoxy-4-((1S,2S)-2-phenylcyclopropyl)phenyl)-N-(isoxazol-3-yl)-2-oxo-1,2-dihydroquinoline-6-sulfonamide], the IC50 came to 0.004 µM. The result for `COc1cc([C@H]2CC2(F)F)c(F)cc1-n1c(=O)ccc2cc(S(=O)(=O)Nc3ccon3)ccc21` (atropisomer, axis not shown; (P)) [Example 10, (P)-(R)-1-(4-(2,2-difluorocyclopropyl)-5-fluoro-2-methoxyphenyl)-N-(isoxazol-3-yl)-2-oxo-1,2-dihydroquinoline-6-sulfonamide] reads 0.066 µM. The same measure for `COc1cc([C@@H]2CC2(F)F)c(F)cc1-n1c(=O)ccc2cc(S(=O)(=O)Nc3ccon3)ccc21` (atropisomer, axis not shown; (P)) [Example 11, (P)-(S)-1-(4-(2,2-difluorocyclopropyl)-5-fluoro-2-methoxyphenyl)-N-(isoxazol-3-yl)-2-oxo-1,2-dihydroquinoline-6-sulfonamide]: 0.059 µM. Take `COc1cc([C@H]2C[C@@H]2C(F)(F)F)c(Cl)cc1-n1c(=O)ccc2cc(S(=O)(=O)Nc3ncccn3)ccc21` (atropisomer, axis not shown; (P)) [Example 12, (P)-1-(5-chloro-2-methoxy-4-((1S,2S)-2-(trifluoromethyl)cyclopropyl)phenyl)-2-oxo-N-(pyrimidin-2-yl)-1,2-dihydroquinoline-6-sulfonamide]: the IC50 was found to be 0.017 µM. The result for `COc1cc([C@@H]2C[C@H]2C(F)(F)F)c(Cl)cc1-n1c(=O)ccc2cc(S(=O)(=O)Nc3ncccn3)ccc21` (atropisomer, axis not shown; (P)) [Example 13, (P)-1-(5-chloro-2-methoxy-4-((1R,2R)-2-(trifluoromethyl)cyclopropyl)phenyl)-2-oxo-N-(pyrimidin-2-yl)-1,2-dihydroquinoline-6-sulfonamide] reads 0.012 µM. The same measure for `COc1cc([C@@H]2C[C@H]2C(F)(F)F)c(F)cc1-n1c(=O)ccc2cc(S(=O)(=O)Nc3cccnn3)ccc21` (atropisomer, axis not shown; (P)) [Example 16, (P)-1-(5-fluoro-2-methoxy-4-((1R,2R)-2-(trifluoromethyl)cyclopropyl)phenyl)-2-oxo-N-(pyridazin-3-yl)-1,2-dihydroquinoline-6-sulfonamide]: 0.019 µM; for `COc1cc([C@H]2C[C@@H]2C(F)(F)F)c(F)cc1-n1c(=O)ccc2cc(S(=O)(=O)Nc3cccnn3)ccc21` (atropisomer, axis not shown; (P)) [Example 17, (P)-1-(5-fluoro-2-methoxy-4-((1S,2S)-2-(trifluoromethyl)cyclopropyl)phenyl)-2-oxo-N-(pyridazin-3-yl)-1,2-dihydroquinoline-6-sulfonamide]: 0.016 µM; for `COc1cc([C@@H]2C[C@H]2C(F)(F)F)c(Cl)cc1-n1c(=O)ccc2cc(S(=O)(=O)Nc3ccon3)ccc21` (atropisomer, axis not shown; (P)) [Example 18, (P)-1-(5-chloro-2-methoxy-4-((1R,2R)-2-(trifluoromethyl)cyclopropyl)phenyl)-N-(isoxazol-3-yl)-2-oxo-1,2-dihydroquinoline-6-sulfonamide]: 0.007 µM. The result for `COc1cc([C@H]2C[C@@H]2C(F)(F)F)c(Cl)cc1-n1c(=O)ccc2cc(S(=O)(=O)Nc3ccon3)ccc21` (atropisomer, axis not shown; (P)) [Example 19, (P)-1-(5-chloro-2-methoxy-4-((1S,2S)-2-(trifluoromethyl)cyclopropyl)phenyl)-N-(isoxazol-3-yl)-2-oxo-1,2-dihydroquinoline-6-sulfonamide] reads 0.006 µM; that for `COc1cc([C@@H]2C[C@H]2C(F)(F)F)c(F)cc1-n1c(=O)ccc2cc(S(=O)(=O)Nc3ncccn3)ccc21` (atropisomer, axis not shown; (P)) [Example 20, (P)-1-(5-fluoro-2-methoxy-4-((1R,2R)-2-(trifluoromethyl)cyclopropyl)phenyl)-2-oxo-N-(pyrimidin-2-yl)-1,2-dihydroquinoline-6-sulfonamide], 0.024 µM. For `COc1cc([C@H]2C[C@@H]2C(F)(F)F)c(F)cc1-n1c(=O)ccc2cc(S(=O)(=O)Nc3ncccn3)ccc21` (atropisomer, axis not shown; (P)) [Example 21, (P)-1-(5-fluoro-2-methoxy-4-((1S,2S)-2-(trifluoromethyl)cyclopropyl)phenyl)-2-oxo-N-(pyrimidin-2-yl)-1,2-dihydroquinoline-6-sulfonamide], the IC50 came out at 0.035 µM. The result for `COc1cc(C2(C(F)(F)F)CC2)c(F)cc1-n1c(=O)ccc2cc(S(=O)(=O)Nc3ncccn3)ccc21` (atropisomer, axis not shown; (P)) [Example 23, (P)-1-(5-fluoro-2-methoxy-4-(1-(trifluoromethyl)cyclopropyl)phenyl)-2-oxo-N-(pyrimidin-2-yl)-1,2-dihydroquinoline-6-sulfonamide] reads 0.016 µM.

Take `COc1cc(C2(C(F)(F)F)CC2)c(Cl)cc1-n1c(=O)ccc2cc(S(=O)(=O)Nc3ccon3)ccc21` (atropisomer, axis not shown; (P)) [Example 24, (P)-1-(5-chloro-2-methoxy-4-(1-(trifluoromethyl)cyclopropyl)phenyl)-N-(isoxazol-3-yl)-2-oxo-1,2-dihydroquinoline-6-sulfonamide]: the IC50 amounted to 0.006 µM. The result for `COc1cc(C2(C(F)(F)F)CC2)c(Cl)cc1-n1c(=O)ccc2cc(S(=O)(=O)Nc3ncccn3)ccc21` (atropisomer, axis not shown; (P)) [Example 25, (P)-1-(5-chloro-2-methoxy-4-(1-(trifluoromethyl)cyclopropyl)phenyl)-2-oxo-N-(pyrimidin-2-yl)-1,2-dihydroquinoline-6-sulfonamide] reads 0.022 µM; that for `COc1cc([C@@H]2C[C@H]2C(F)(F)F)c(C)cc1-n1c(=O)ccc2cc(S(=O)(=O)Nc3ncccn3)ccc21` (atropisomer, axis not shown; (P)) [Example 28, (P)-1-(2-methoxy-5-methyl-4-((1R,2R)-2-(trifluoromethyl)cyclopropyl)phenyl)-2-oxo-N-(pyrimidin-2-yl)-1,2-dihydroquinoline-6-sulfonamide], 0.042 µM; that for `COc1cc([C@H]2C[C@@H]2C(F)(F)F)c(C)cc1-n1c(=O)ccc2cc(S(=O)(=O)Nc3ncccn3)ccc21` (atropisomer, axis not shown; (P)) [Example 29, (P)-1-(2-methoxy-5-methyl-4-((1S,2S)-2-(trifluoromethyl)cyclopropyl)phenyl)-2-oxo-N-(pyrimidin-2-yl)-1,2-dihydroquinoline-6-sulfonamide], 0.032 µM.
